pIC50: −log10 of the molar value. Where two headings read alike, the source gives them in different places.
Biological target: T1, Recombinant human cathepsin A (Homo sapiens, UniProt P10619)
T1 construct: Recombinant human cathepsin A (residues 29-480, with a C-terminal 10-His tag); 10-His (C); purchased R&D Systems 1049-SE
T1 sequence (P10619 29-312 limits assumed): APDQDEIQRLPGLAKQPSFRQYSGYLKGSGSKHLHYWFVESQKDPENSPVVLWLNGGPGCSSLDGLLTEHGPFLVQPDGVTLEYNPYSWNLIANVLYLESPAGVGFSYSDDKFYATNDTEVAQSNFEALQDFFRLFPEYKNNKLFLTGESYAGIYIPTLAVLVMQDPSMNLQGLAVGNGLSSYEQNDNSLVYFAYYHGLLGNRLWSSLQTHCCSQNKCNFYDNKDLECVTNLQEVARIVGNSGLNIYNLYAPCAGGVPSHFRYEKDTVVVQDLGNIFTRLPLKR
T1 sequence (P10619 327-480 limits assumed): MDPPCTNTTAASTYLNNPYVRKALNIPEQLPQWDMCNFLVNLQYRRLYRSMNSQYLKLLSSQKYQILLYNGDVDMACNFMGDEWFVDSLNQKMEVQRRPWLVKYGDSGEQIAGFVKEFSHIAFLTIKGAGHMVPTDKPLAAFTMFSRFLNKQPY
Test: Cathepsin A inhibitory activity
Type: biochemical
How it was run: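 Read-out was microfluidic separation of cleaved vs. uncleaved Bodipy FL-bradykinin (2 μM), giving turnover, % inhibition and IC50. Compound and 833 ng/ml enzyme met for 15 min RT in pH 5.5 MES/DTT before substrate (15 min RT). The 29-480 His-tagged human enzyme was first activated by cathepsin L, then E-64 (10 μM).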

[1] = read-out: Activity (2): Cathepsin A inhibitory activity (IC50 class)
[2] = recombinant human cathepsin A 833 ng/ml, Bodipy FL-labeled bradykinin 2 μM, pH 5.5, read-out: CATH-A IC50

SMILES	pIC50 [1]	pIC50 [2]
COc1ccc(C(F)(F)F)cc1C(CC(=O)O)NC(=O)c1cc(O)n(-c2ccccc2Cl)n1 (stereo not drawn) [Example 560, 3-{[1-(2-Chloro-phenyl)-5-hydroxy-1H-pyrazole-3-carbonyl]-amino}-3-(2-methoxy-5-trifluoromethyl-phenyl)-propionic acid]	4.52 to 6.00	5.12
COc1ccc(-c2ccccc2)cc1C(CC(=O)O)NC(=O)c1cc(O)n(-c2ccccc2Cl)n1 (stereo not drawn) [Example 562, 3-{[1-(2-Chloro-phenyl)-5-hydroxy-1H-pyrazole-3-carbonyl]-amino}-3-(4-methoxy-biphenyl-3-yl)-propionic acid]	4.52 to 6.00	5.35
O=C(O)CC(NC(=O)c1cc(O)n(-c2ccccc2)n1)c1ccc(-n2cncn2)cc1 (stereo not drawn) [Example 563, 3-[(5-Hydroxy-1-phenyl-1H-pyrazole-3-carbonyl)-amino]-3-(4-[1,2,4]triazol-1-yl-phenyl)-propionic acid]	4.52 to 6.00	5.76
O=C(O)CC(NC(=O)c1cc(O)n(-c2ccccc2)n1)c1ccc(N2CCCC2)cc1 (stereo not drawn) [Example 565, 3-[(5-Hydroxy-1-phenyl-1H-pyrazole-3-carbonyl)-amino]-3-(4-pyrrolidin-1-yl-phenyl)-propionic acid]	4.52 to 6.00	5.30
O=C(O)CC(NC(=O)c1cc(O)n(-c2ccccc2F)n1)c1ccc(N2CCCC2)cc1 (stereo not drawn) [Example 566, 3-{[1-(2-Fluoro-phenyl)-5-hydroxy-1H-pyrazole-3-carbonyl]-amino}-3-(4-pyrrolidin-1-yl-phenyl)-propionic acid]	4.52 to 6.00	5.52
COc1ccc(C(CC(=O)O)NC(=O)c2cc(O)n(-c3ccccc3Cl)n2)c(C(F)(F)F)c1 (stereo not drawn) [Example 567, 3-{[1-(2-Chloro-phenyl)-5-hydroxy-1H-pyrazole-3-carbonyl]-amino}-3-(4-methoxy-2-trifluoromethyl-phenyl)-propionic acid]	4.52 to 6.00	5.97
O=C(O)CC(NC(=O)c1cc(O)n(-c2ccccc2Cl)n1)c1ccc(N2CCCC2)cc1 (stereo not drawn) [Example 568, 3-{[1-(2-Chloro-phenyl)-5-hydroxy-1H-pyrazole-3-carbonyl]-amino}-3-(4-pyrrolidin-1-yl-phenyl)-propionic acid]	4.52 to 6.00	5.63
O=C(O)CC(NC(=O)c1cc(O)n(C2CCCC2)n1)c1ccc(-c2ccc(F)cc2)cc1 (stereo not drawn) [Example 574]	4.52 to 6.00	
O=C(O)CC(NC(=O)c1cc(O)n(C2CCCCC2)n1)c1ccc(-c2ccc(F)cc2)cc1 (stereo not drawn) [Example 575]	4.52 to 6.00	
O=C(O)CC(NC(=O)c1cc(O)n(-c2ccccc2)n1)c1ccc(-n2cccn2)cc1 (stereo not drawn) [Example 578]	4.52 to 6.00	
O=C(O)CC(NC(=O)c1cc(O)n(-c2ccccc2)n1)c1ccc(-c2ccc(C(F)(F)F)cc2)cc1 (stereo not drawn) [Example 579]	4.52 to 6.00	
O=C(O)CC(NC(=O)c1cc(O)n(-c2ccccc2Cl)n1)c1ccc(-c2ccc(C(F)(F)F)cc2)cc1 (stereo not drawn) [Example 581]	4.52 to 6.00	
O=C(O)CC(NC(=O)c1cc(O)n(-c2ccccc2)n1)c1ccc(-c2ccccc2F)cc1 (stereo not drawn) [Example 583]	4.52 to 6.00	

Now from value to molecule:

pIC50 [1]	pIC50 [2]	SMILES
6.00 to 7.00	6.45	COc1cc(-c2ccccc2)ccc1C(CC(=O)O)NC(=O)c1cc(O)n(-c2ccccc2F)n1 (stereo not drawn) [Example 551, 3-{[1-(2-Fluoro-phenyl)-5-hydroxy-1H-pyrazole-3-carbonyl]-amino}-3-(3-methoxy-biphenyl-4-yl)-propionic acid]
6.00 to 7.00	6.49	COc1ccc(C(CC(=O)O)NC(=O)c2cc(O)n(-c3ccccc3F)n2)c(C(F)(F)F)c1 (stereo not drawn) [Example 552, 3-{[1-(2-Fluoro-phenyl)-5-hydroxy-1H-pyrazole-3-carbonyl]-amino}-3-(4-methoxy-2-trifluoromethyl-phenyl)-propionic acid]
6.00 to 7.00	6.14	COc1ccc(F)c(C(CC(=O)O)NC(=O)c2cc(O)n(-c3ccccc3F)n2)c1 (stereo not drawn) [Example 553, 3-(2-Fluoro-5-methoxy-phenyl)-3-{[1-(2-fluoro-phenyl)-5-hydroxy-1H-pyrazole-3-carbonyl]-amino}-propionic acid]
4.52 to 6.00	5.73	COc1ccc(C(F)(F)F)cc1C(CC(=O)O)NC(=O)c1cc(O)n(-c2ccccc2F)n1 (stereo not drawn) [Example 554, 3-{[1-(2-Fluoro-phenyl)-5-hydroxy-1H-pyrazole-3-carbonyl]-amino}-3-(2-methoxy-5-trifluoromethyl-phenyl)-propionic acid]
6.00 to 7.00	6.62	Cc1ccc(C(CC(=O)O)NC(=O)c2cc(O)n(-c3ccccc3F)n2)c(F)c1 (stereo not drawn) [Example 555, 3-(2-Fluoro-4-methyl-phenyl)-3-{[1-(2-fluoro-phenyl)-5-hydroxy-1H-pyrazole-3-carbonyl]-amino}-propionic acid]
4.52 to 6.00	5.06	COc1ccc(-c2ccccc2)cc1C(CC(=O)O)NC(=O)c1cc(O)n(-c2ccccc2F)n1 (stereo not drawn) [Example 556, 3-{[1-(2-Fluoro-phenyl)-5-hydroxy-1H-pyrazole-3-carbonyl]-amino}-3-(4-methoxy-biphenyl-3-yl)-propionic acid]
6.00 to 7.00	6.08	O=C(O)CC(NC(=O)c1cc(O)n(-c2ccccc2Cl)n1)c1ccc(-n2cncn2)cc1 (stereo not drawn) [Example 557, 3-{[1-(2-Chloro-phenyl)-5-hydroxy-1H-pyrazole-3-carbonyl]-amino}-3-(4-[1,2,4]triazol-1-yl-phenyl)-propionic acid]
6.00 to 7.00	6.16	COc1cc(-c2ccccc2)ccc1C(CC(=O)O)NC(=O)c1cc(O)n(-c2ccccc2Cl)n1 (stereo not drawn) [Example 558, 3-{[1-(2-Chloro-phenyl)-5-hydroxy-1H-pyrazole-3-carbonyl]-amino}-3-(3-methoxy-biphenyl-4-yl)-propionic acid]
6.00 to 7.00	6.14	COc1ccc(F)c(C(CC(=O)O)NC(=O)c2cc(O)n(-c3ccccc3Cl)n2)c1 (stereo not drawn) [Example 559, 3-{[1-(2-Chloro-phenyl)-5-hydroxy-1H-pyrazole-3-carbonyl]-amino}-3-(2-fluoro-5-methoxy-phenyl)-propionic acid]
6.00 to 7.00	6.58	Cc1ccc(C(CC(=O)O)NC(=O)c2cc(O)n(-c3ccccc3Cl)n2)c(F)c1 (stereo not drawn) [Example 561, 3-{[1-(2-Chloro-phenyl)-5-hydroxy-1H-pyrazole-3-carbonyl]-amino}-3-(2-fluoro-4-methyl-phenyl)-propionic acid]
6.00 to 7.00	6.34	Cc1ccc(C(CC(=O)O)NC(=O)c2cc(O)n(-c3ccccc3)n2)c(F)c1 (stereo not drawn) [Example 564, 3-(2-Fluoro-4-methyl-phenyl)-3-[(5-hydroxy-1-phenyl-1H-pyrazole-3-carbonyl)-amino]-propionic acid]
6.00 to 7.00		O=C(O)CC(NC(=O)c1cc(O)n(-c2ccccc2C(F)(F)F)n1)c1ccc(-c2ccc(F)cc2)cc1 (stereo not drawn) [Example 569]
6.00 to 7.00		Cc1ccccc1[C@H](CC(=O)O)NC(=O)c1cc(O)n(C2CCCC2)n1 [Example 572]
> 7.00		Cc1ccccc1[C@H](CC(=O)O)NC(=O)c1cc(O)n(C2CCCCC2)n1 [Example 573]
6.00 to 7.00		O=C(O)CC(NC(=O)c1cc(O)n(-c2ccccc2F)n1)c1ccc(-c2ccc(C(F)(F)F)cc2)cc1 (stereo not drawn) [Example 576]
6.00 to 7.00		O=C(O)CC(NC(=O)c1cc(O)n(-c2ccccc2Cl)n1)c1ccc(-n2cccn2)cc1 (stereo not drawn) [Example 580]
6.00 to 7.00		O=C(O)CC(NC(=O)c1cc(O)n(-c2ccccc2F)n1)c1ccc(-n2cccn2)cc1 (stereo not drawn) [Example 582]
